For assay [1], the target named is Fibroblast growth factor receptor 3 (Homo sapiens, UniProt P22607). Briefly: Inhibition of recombinant FGFR3 (unknown origin) using (Glu,Tyr)4:1 as substrate incubated for 60 mins by ELISA.
The target in assay [2] is T1, Fibroblast growth factor receptor 1 (Homo sapiens, UniProt P11362). Briefly: Inhibition of recombinant FGFR1 (unknown origin) using (Glu,Tyr)4:1 as substrate incubated for 60 mins by ELISA. In general terms: ELISA stands for enzyme-linked immunosorbent assay.
Assay [3] addresses Fibroblast growth factor receptor 4 (Homo sapiens, UniProt P22455). Nature of the assay: Inhibition of recombinant FGFR4 (unknown origin) using (Glu,Tyr)4:1 as substrate incubated for 60 mins by ELISA.
Assay [4] addresses T1, Fibroblast growth factor receptor 1. Nature of the assay: Inhibition of FGFR1 phosphorylation in human KG1 cells assessed as reduction of phospho-PLCgamma level at 0.4 to 10 nM incubated for 2 hrs by Western blot analysis. The assay is classed as cell-based. The settings on record: KG-1. In general terms: Immunoblotting shows a protein as a band on a membrane.
Target sequence in this assay (P11362 22-822 limits assumed): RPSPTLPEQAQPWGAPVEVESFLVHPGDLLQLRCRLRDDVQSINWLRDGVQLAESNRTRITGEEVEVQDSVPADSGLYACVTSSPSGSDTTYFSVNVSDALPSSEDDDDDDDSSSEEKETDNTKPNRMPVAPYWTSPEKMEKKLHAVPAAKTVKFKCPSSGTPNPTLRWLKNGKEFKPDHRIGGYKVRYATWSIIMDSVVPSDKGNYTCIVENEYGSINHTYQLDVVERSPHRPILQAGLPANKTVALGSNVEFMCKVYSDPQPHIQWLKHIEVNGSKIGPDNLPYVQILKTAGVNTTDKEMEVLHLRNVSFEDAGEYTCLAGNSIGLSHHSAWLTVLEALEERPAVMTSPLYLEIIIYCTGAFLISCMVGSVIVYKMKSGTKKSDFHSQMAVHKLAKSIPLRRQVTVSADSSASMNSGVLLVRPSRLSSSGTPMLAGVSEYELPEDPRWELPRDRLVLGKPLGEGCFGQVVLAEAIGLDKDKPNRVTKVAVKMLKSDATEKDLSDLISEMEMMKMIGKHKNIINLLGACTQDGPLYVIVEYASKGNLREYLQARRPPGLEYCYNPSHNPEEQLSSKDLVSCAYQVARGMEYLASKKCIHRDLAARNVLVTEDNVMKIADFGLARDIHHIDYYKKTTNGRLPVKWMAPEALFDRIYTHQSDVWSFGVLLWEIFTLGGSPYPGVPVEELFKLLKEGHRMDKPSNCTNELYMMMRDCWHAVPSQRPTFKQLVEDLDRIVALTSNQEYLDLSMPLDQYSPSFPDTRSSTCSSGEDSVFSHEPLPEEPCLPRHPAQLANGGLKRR
Assay [5] shares this target. Nature of the assay: Inhibition of FGFR1 phosphorylation in human KG1 cells incubated for 2 hrs by Western blot analysis. The class given is cell-based. The settings on record: KG-1.
Target sequence in this assay (P11362 22-822 limits assumed): as above
For assay [6], the target named is Vascular endothelial growth factor receptor 2 (Homo sapiens, UniProt P35968). Nature of the assay: Inhibition of recombinant VEGFR2 (unknown origin) using (Glu,Tyr)4:1 as substrate incubated for 60 mins by ELISA.
For assay [7], the target named is T1, Fibroblast growth factor receptor 1. Briefly: Inhibition of FGFR1 phosphorylation in human KG1 cells assessed as reduction of phospho-ERK level at 0.4 to 10 nM incubated for 2 hrs by Western blot analysis. The assay is classed as cell-based. The settings on record: KG-1.
Target sequence in this assay (P11362 22-822 limits assumed): as above
The target of assay [8] is T2, Fibroblast growth factor receptor 2 (Homo sapiens, UniProt P21802). Nature of the assay: Inhibition of recombinant FGFR2 (unknown origin) at 10 nM using (Glu,Tyr)4:1 as substrate incubated for 60 mins by ELISA.
Target sequence in this assay (P21802 22-821 limits assumed): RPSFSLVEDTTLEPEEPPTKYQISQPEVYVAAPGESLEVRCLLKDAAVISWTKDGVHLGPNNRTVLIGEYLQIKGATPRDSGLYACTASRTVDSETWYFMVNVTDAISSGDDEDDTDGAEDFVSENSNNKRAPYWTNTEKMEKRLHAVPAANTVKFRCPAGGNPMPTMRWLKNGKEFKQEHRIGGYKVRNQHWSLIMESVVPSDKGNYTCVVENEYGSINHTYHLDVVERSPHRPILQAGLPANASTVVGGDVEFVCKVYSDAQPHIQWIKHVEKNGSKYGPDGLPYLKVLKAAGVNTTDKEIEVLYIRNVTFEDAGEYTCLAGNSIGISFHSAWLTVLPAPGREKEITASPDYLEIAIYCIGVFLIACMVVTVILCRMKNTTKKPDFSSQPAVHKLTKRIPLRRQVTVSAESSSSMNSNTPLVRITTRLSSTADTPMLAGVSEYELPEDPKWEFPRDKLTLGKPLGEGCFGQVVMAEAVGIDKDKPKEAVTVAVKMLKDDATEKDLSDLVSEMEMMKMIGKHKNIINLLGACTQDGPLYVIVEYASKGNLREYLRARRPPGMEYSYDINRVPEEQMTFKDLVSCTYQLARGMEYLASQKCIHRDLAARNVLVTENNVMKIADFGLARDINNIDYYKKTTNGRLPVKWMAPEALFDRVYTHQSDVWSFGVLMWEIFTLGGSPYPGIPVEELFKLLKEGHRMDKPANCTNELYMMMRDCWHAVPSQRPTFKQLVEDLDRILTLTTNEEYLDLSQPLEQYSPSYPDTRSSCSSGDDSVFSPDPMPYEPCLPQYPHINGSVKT
For assay [9], the target named is T2, Fibroblast growth factor receptor 2. Nature of the assay: Inhibition of FGFR2 (unknown origin) at 1 nM using (Glu,Tyr)4:1 as substrate incubated for 60 mins by ELISA.
Target sequence in this assay (P21802 22-821 limits assumed): as above
The target is the same in assay [10]. Nature of the assay: Inhibition of recombinant FGFR2 (unknown origin) using (Glu,Tyr)4:1 as substrate incubated for 60 mins by ELISA.
Target sequence in this assay (P21802 whole entry): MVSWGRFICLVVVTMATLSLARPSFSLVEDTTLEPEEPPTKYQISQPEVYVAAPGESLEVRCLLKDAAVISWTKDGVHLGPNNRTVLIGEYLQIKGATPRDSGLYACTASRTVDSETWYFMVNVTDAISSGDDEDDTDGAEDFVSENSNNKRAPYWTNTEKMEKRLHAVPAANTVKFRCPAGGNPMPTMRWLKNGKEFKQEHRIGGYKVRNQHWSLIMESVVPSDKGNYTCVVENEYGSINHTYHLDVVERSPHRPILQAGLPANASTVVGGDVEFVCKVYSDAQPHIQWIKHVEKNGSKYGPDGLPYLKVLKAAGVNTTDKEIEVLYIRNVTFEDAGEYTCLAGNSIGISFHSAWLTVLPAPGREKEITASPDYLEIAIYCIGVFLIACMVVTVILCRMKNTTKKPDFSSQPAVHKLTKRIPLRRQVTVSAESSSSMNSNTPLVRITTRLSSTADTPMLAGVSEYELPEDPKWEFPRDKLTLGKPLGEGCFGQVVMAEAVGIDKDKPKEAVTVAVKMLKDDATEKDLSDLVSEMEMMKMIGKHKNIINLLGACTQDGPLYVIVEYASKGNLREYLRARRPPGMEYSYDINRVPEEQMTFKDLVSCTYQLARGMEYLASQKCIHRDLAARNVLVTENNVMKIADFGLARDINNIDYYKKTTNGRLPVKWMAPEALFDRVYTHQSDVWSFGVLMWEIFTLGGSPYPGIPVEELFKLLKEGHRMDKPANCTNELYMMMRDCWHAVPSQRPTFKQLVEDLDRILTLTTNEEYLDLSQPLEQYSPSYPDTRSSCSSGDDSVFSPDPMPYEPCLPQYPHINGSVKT

Each structure is given as a SMILES string. Activity calls are given as the source filed them. The rule behind the calls is not given here.

IC50 and inhibition data for nine compounds are collected here from ChEMBL document CHEMBL3797059 (Bioorg Med Chem Lett, 2016).

In general, IC50 refers to the point on the concentration scale where inhibition reaches its midpoint. In general, inhibition refers to the relative decrease from the control value, in per cent.

Vascular endothelial growth factor receptor 2, sequence (P35968 whole entry): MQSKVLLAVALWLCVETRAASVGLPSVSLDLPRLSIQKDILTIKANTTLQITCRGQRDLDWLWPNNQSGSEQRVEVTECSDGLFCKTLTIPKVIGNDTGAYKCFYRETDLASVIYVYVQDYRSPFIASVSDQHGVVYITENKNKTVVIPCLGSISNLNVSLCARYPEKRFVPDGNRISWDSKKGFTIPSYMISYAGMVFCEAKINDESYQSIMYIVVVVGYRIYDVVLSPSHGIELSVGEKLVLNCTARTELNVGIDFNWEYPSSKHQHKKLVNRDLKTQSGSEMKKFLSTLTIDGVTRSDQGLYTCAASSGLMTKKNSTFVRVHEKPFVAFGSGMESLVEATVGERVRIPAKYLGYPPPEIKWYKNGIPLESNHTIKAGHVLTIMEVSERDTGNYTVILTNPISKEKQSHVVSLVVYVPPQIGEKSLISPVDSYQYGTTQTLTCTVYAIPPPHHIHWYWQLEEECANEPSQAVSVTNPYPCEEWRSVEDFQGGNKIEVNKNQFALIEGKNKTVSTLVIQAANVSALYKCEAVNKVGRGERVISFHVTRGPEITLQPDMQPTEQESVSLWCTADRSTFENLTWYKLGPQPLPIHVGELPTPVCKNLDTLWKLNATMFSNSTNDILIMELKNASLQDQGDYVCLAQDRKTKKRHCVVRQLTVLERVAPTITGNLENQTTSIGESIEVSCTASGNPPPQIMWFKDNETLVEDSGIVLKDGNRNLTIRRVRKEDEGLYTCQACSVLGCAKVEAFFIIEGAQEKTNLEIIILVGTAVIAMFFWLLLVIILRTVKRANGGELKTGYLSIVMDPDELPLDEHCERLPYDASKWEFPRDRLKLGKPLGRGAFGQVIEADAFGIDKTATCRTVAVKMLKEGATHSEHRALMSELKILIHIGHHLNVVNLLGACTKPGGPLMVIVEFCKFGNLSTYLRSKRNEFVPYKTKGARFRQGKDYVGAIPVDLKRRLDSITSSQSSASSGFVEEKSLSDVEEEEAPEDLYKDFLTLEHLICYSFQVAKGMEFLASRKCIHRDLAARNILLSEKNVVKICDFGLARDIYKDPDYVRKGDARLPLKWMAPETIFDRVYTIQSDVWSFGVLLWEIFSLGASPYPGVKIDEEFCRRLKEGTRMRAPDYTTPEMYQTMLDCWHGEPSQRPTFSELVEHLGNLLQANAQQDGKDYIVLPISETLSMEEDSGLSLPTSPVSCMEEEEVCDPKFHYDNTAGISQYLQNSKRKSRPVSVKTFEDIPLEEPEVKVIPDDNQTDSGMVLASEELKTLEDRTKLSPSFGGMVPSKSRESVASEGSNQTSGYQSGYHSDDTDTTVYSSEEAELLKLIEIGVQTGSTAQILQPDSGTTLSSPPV
Fibroblast growth factor receptor 4, sequence (P22455 whole entry): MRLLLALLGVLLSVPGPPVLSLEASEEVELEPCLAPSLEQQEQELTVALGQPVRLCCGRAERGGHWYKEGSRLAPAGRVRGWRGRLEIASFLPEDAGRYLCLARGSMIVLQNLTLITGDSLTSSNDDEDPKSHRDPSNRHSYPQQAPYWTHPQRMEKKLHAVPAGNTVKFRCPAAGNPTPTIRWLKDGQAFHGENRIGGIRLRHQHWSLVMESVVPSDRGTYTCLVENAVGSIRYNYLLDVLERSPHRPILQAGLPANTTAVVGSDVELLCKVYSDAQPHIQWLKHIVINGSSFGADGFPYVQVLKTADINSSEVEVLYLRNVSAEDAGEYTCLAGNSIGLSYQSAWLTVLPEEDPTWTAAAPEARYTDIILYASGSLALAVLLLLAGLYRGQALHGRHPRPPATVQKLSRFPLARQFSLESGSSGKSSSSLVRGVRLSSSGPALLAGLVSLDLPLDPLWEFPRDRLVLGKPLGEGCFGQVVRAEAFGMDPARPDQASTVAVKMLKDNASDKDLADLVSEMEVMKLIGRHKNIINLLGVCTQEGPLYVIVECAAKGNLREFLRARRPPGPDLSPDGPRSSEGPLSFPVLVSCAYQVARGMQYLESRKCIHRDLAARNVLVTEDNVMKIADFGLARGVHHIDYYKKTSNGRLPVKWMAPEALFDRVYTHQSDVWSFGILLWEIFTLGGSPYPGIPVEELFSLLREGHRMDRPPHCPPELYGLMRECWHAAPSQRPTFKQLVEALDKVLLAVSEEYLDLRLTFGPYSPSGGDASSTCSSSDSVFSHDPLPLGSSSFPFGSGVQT

Take `COc1cc(CCc2cc(Nc3ncnc4cc(N5CCN6CCCCC6C5)ccc34)n[nH]2)cc(OC)c1` (stereo unspecified): the IC50 in [1] came out at 5 nM; in [2] it was 1 nM; in assay [3] it was 52.7 nM; in [6], 21.5 nM. The inhibition entry in [4] and in assay [7] was “Active” each time. In addition, in assay [5], the inhibition entry was “Dose-dependent effect”. With `CCc1nc(Nc2cc(CCc3cc(OC)cc(OC)c3)[nH]n2)c2ccc(N3CCN(CC)CC3)cc2n1`, the IC50 in assay [6] was 35.8 nM. `COc1cc(CCc2cc(Nc3ncnc4cc(N5CCN(S(=O)(=O)c6ccc(C)cc6)CC5)ccc34)n[nH]2)cc(OC)c1`: the inhibition in [8] was 41.8%. As to `COCCOc1ccc2c(Nc3cc(CCc4cc(OC)cc(OC)c4)[nH]n3)ncnc2c1`, in assay [6], the IC50 is over 100 nM. Still for that read-out and setting: the figure for `COc1cc(CCc2cc(Nc3ncnc4cc(NCCN5CCOCC5)ccc34)n[nH]2)cc(OC)c1` is over 100 nM. For the compound `COc1cc(CCc2cc(Nc3ncnc4cc(N5CCCCC5)ccc34)n[nH]2)cc(OC)c1`, the inhibition in assay [9] was found to be 87.4%. For the compound `COc1cc(CCc2cc(Nc3ncnc4cc(OC)ccc34)n[nH]2)cc(OC)c1`, the inhibition came out at 16.9% in [9] and 73.3% in assay [8]. Turning to `CCN1CCN(c2ccc3c(Nc4cc(CCc5c(Cl)c(OC)cc(OC)c5Cl)[nH]n4)ncnc3c2)CC1`, in assay [6], the IC50 was 17.5 nM. `CCN1CCN(c2ccc3c(Nc4cc(CCc5cc(OC)cc(OC)c5)[nH]n4)nc(NCc4cc(C)no4)nc3c2)CC1`: the IC50 in assay [10] is under 10 nM.
